Where “and” joins values, the source holds several entries; their conditions need not be identical. Identical values can stand only once. Numbers after ± are expanded uncertainties.

This series is described as follows: molar enthalpy of vaporization or sublimation. Particulars: 298.15 K; Liquid; Static calorimetry.
With `CCOC(=O)c1ccccc1N` [ethyl 2-aminobenzoate], the molar enthalpy was determined as 17 ± 0.311 kcal/mol.

For the compound `CCOC(=O)c1cccc(N)c1` [ethyl 3-aminobenzoate], the molar enthalpy was 19.9 ± 0.526 kcal/mol.

Turning to `CCCCCCCCCC` [decane], the molar enthalpy is 11.9 kcal/mol and 12.5 kcal/mol.
